Reference: patent publication US8785470B2, “Heterocyclic compounds and uses thereof” (Infinity Pharmaceuticals, Inc., priority 2011, dated 2014)
Like-named read-outs stand apart in the source and are kept apart here.

Legend:
[1] = system: phospho-AKT in RAJI cells (PI3Kδ); assay: PI3Kδ selective assay, phospho-AKT in RAJI cells; format: cell-based; conditions: RAJI cells stimulated with anti-human IgM; read-out: IC50 for phospho-AKT, RAJI cell model
Description: A compound's ability in selectively inhibiting PI3Kδ can be assessed using RAJI cells, i.e., B lymphocyte cells derived from lymphoma patients. Briefly, serum-starved RAJI cells are stimulated with anti-human IgM, thereby causing signaling through the B-cell receptors, as described in, for example, He et al., Leukemia Research (2009) 33: 798-802. B-cell receptor signaling is important for the activation, differentiation, and survival of B cells and certain B-cell derived cancers. Reduction of phospho-AKT is indicative of compounds that may inhibit B-cell proliferation and function in certain diseases. By monitoring the reduction of phospho-AKT in stimulated RAJI cells (using for example, phospho-AKT antibodies), a compound's potential efficacy in selectively inhibiting PI3Kδ can be assessed.

[2] = system: phospho-AKT in RAW 264.7 cells (PI3Kγ); assay: PI3Kγ selective assay, phospho-AKT in RAW 264.7 cells; format: cell-based; conditions: Mus musculus, RAW264.7; stimulated with C5a; ranges less than 100 nM and between 100 nM and 1 μM (given as 100-1000); read-out: IC50 for phospho-AKT, RAW 264.7 cell model
Description: A compound's ability in selectively inhibiting PI3Kγ can be assessed using RAW264.7 macrophages. Briefly, serum-starved PAW264.7 cells are stimulated with a known GPCR agonist C5a. (See, e.g., Camps et al., Nature Medicine (2005) 11(9): 936-943). Cells can be treated with test compounds prior to, simultaneously with, or subsequent to the stimulation by C5a. RAW 264.7 cells respond to the complement component fragment C5a through activation of the C5a receptor, and the C5a receptor activates macrophages and induces cell migration. Test compounds' ability to inhibit C5a-mediated AKT phosphorylation is indicative of selective inhibition of PI3Kγ. Thus, by monitoring the reduction of phospho-AKT in stimulated RAW 264.7 cells (using for example, phospho-AKT antibodies), a compound's potential efficacy in selectively inhibiting PI3Kγ can be assessed.

[3] = biological target: T1, PI3Kα (Homo sapiens, UniProt P42336); assay: PI3-Kinase HTRF assay, PI3Kα; format: biochemical; conditions: bins Greater than 10 μM and Greater than 1 μM to 10 μM; 10 μM ATP, PIP2 at 10 μM; read-out: IC50 P13Kα
T1 construct: purchased Millipore Corporation 14-602-K
In short: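 Purified recombinant human PI3Kα, β, γ or δ (0.25-0.3 μg/ml) preincubated 15 min at room temperature with compound (2% DMSO) and 10 μM PIP2, then reacted 1 h with 10 μM ATP. PIP3 product detected by competitive HTRF (GST-PH domain/biotin-PIP3); IC50 from 12-point curves, 20 μM to 0.1 nM, by nonlinear regression.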

[4] = biological target: T2, PI3Kβ (Homo sapiens, UniProt P42338); assay: PI3-Kinase HTRF assay, PI3Kβ; format: biochemical; conditions: bins Greater than 10 μM and Greater than 1 μM to 10 μM; 10 μM ATP, PIP2 at 10 μM
T2 construct: purchased Millipore Corporation 14-603-K
Description: A PI3-Kinase HTRF® assay kit (cat No. 33-016) purchased from Millipore Corporation was used to screen compounds provided herein. This assay used specific, high affinity binding of the GRPI pleckstrin homology (PH) domain to PIP3, the product of a Class 1A or 1B PI3 Kinase acting on its physiological substrate PIP2. During the detection phase of the assay, a complex was generated between the GST-tagged PH domain and biotinylated short chain PIP3. The biotinylated PIP3 and the GST-tagged PH domain recruited fluorophores (Streptavidin-Allophycocyanin and Europium-labeled anti-GST respectively) to form the fluorescence resonance energy transfer (FRET) architecture, generating a stable time-resolved FRET signal. The FRET complex was disrupted in a competitive manner by non-biotinylated PIP3, a product formed in the PI3 Kinase assay.
PI3 Kinase α, β, γ and δ activity was assayed using the PI3 Kinase HTRF® assay kit (catalogue No. 33-016) purchased from Millipore Corporation. Purified recombinant PI3Kα (catalogue No. 14-602-K), PI3Kβ (catalogue No. 14-603-K), PI3Kγ (catalogue No. 14-558-K) and PI3Kδ (catalogue No. 14-604-K) were obtained from Millipore Corporation. Purified recombinant PI3K enzyme was used to catalyze the phosphorylation of phosphatidylinositol 4,5-bisphosphate (PIP2 at 10 μM) to phosphatidylinositol 3,4,5-trisphosphate (PIP3) in the presence of 10 μM ATP. The assay was carried out in 384-well format and detected using a Perkin Elmer EnVision Xcite Multilabel Reader. Emission ratios were converted into percent inhibitions and imported into GraphPad Prism software. The concentration necessary to achieve inhibition of enzyme activity by 50% (IC50) was calculated using concentrations ranging from 20 μM to 0.1 nM (12-point curve). IC50 values were determined using a nonlinear regression model available in GraphPad Prism 5. […]

[5] = system: Balb/c splenic B cells; assay: B cell activation and proliferation assay; format: cell-based; conditions: Mus musculus, read-out: B cell proliferation EC50
In short: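 Balb/c splenic B cells were isolated by Ficoll gradient and magnetic separation, plated at 50.000 cells/well in RPMI/10% FBS, and pre-incubated with compound for 30 min at 37° C (0.2% DMSO). Cells were stimulated for 72 h with a cocktail of 10 μg/ml LPS or 5 μg/ml anti-mouse IgM F(ab′)2 plus 2 ng/ml IL4. Alamar Blue fluorescence (560Ex/590Em) after 5 h gave IC50 or EC50.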

[6] = column bins 1 μM to 100 nM (given as 100-1000) and Less than 100 nM

T1 sequence (P42336 whole entry): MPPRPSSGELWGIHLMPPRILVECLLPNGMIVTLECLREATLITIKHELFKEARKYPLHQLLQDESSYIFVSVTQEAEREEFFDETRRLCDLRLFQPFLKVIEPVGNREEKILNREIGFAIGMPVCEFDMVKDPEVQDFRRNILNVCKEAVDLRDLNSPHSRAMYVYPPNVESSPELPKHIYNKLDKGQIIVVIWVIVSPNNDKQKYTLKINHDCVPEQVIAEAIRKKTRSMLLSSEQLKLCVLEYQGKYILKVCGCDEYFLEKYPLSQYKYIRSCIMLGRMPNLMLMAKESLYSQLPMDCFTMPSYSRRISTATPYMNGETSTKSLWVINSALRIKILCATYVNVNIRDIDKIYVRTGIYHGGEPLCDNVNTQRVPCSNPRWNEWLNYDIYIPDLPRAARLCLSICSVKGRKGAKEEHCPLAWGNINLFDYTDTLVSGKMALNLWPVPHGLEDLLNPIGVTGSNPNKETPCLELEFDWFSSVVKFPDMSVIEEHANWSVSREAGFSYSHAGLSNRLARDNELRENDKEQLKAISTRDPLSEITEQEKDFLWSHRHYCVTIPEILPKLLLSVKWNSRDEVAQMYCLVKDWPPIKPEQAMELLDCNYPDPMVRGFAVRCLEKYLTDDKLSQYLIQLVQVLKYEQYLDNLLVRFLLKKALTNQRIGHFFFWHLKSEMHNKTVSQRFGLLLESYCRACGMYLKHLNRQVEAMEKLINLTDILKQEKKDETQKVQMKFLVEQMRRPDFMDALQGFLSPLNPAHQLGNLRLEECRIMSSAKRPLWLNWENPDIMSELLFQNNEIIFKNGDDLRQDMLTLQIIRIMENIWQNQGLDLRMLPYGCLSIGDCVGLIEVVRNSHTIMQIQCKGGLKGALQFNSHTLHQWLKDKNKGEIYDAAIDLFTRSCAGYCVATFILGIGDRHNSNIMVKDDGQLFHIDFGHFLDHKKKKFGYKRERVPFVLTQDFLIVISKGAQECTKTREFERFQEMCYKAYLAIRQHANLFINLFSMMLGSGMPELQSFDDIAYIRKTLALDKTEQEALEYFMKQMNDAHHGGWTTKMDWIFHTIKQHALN
T1 sequence (P27986 whole entry partner): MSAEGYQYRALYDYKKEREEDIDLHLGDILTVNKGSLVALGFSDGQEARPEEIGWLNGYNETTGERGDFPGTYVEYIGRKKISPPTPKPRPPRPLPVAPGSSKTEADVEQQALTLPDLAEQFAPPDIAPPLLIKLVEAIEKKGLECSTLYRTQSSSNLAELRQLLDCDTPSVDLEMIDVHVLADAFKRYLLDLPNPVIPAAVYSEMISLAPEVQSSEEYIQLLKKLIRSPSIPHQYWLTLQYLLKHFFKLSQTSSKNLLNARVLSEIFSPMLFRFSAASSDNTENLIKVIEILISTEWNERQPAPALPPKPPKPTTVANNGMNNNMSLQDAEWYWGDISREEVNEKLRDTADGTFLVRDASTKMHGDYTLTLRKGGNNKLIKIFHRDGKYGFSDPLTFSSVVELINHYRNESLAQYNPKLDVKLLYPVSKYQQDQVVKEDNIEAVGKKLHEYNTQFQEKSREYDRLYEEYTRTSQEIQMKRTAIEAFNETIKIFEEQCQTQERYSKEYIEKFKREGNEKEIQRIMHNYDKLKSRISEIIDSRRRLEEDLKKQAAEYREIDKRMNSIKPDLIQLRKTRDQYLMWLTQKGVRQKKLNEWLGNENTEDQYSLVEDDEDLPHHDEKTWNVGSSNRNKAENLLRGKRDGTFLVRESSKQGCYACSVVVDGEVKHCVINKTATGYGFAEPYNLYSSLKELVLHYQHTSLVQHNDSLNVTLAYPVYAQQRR
T2 sequence (P42338 whole entry): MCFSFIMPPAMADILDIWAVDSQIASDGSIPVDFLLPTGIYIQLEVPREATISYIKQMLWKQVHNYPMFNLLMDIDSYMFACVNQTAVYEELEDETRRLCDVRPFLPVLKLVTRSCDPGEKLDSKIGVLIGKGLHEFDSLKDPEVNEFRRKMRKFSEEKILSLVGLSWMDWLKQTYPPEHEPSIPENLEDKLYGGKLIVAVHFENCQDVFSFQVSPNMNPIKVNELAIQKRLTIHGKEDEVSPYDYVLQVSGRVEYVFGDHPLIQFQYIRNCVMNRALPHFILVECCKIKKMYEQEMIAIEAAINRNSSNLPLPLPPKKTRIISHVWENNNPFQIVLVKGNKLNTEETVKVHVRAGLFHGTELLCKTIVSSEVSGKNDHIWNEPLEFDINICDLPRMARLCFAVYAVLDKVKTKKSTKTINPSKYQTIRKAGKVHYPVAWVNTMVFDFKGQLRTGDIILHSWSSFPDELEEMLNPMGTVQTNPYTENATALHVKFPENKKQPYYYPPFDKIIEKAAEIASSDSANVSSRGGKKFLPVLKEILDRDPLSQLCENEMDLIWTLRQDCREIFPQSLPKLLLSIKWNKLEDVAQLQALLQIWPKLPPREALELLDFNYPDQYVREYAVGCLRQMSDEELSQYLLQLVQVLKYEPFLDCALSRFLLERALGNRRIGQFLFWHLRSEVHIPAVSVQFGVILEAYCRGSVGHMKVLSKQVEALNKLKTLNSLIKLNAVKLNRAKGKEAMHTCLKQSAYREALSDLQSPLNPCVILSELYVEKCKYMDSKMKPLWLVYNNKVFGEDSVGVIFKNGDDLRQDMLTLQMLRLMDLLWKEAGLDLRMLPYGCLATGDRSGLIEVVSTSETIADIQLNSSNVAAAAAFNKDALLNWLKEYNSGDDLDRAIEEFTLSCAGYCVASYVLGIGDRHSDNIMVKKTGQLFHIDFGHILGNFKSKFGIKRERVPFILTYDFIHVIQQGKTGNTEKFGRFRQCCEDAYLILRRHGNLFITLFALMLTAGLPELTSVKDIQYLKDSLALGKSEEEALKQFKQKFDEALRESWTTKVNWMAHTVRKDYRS
T2 sequence (P27986 whole entry partner): as the sequence (P27986 whole entry partner) above

Row | IC50 [1] [nM] | IC50 [2] [nM] | IC50 [3] [nM] | IC50 [4] [nM] | SMILES | EC50 [5, 6] [nM] | EC50 [5] [nM]
1 | – | – | 1000 to 10000 | 1000 to 10000 | C[C@H](Nc1nc(N)ncc1C#N)c1cc2cccc(-c3cccc(S(N)(=O)=O)c3)c2c(=O)n1-c1ccccc1 [Compound 102] | < 100 | –
2 | < 100 | < 100 | – | – | CC(=O)c1cnc(N)nc1N[C@@H](C)c1cc2cccc(Cl)c2c(=O)n1-c1ccccc1 [Compound 394] | – | –
3 | – | – | 1000 to 10000 | 1000 to 10000 | C[C@H](Nc1nc(N)ncc1C#N)c1cc2cccc(-c3ccc(S(N)(=O)=O)cc3)c2c(=O)n1-c1ccccc1 [Compound 45] | < 100 | –
4 | – | – | 1000 to 10000 | 1000 to 10000 | C[C@H](Nc1nc(N)ncc1C#N)c1cc2cccc(-c3cnoc3)c2c(=O)n1-c1ccccc1 [Compound 74] | < 100 | –
5 | – | – | 1000 to 10000 | 1000 to 10000 | C[C@H](Nc1nc(N)ncc1C#N)c1cc2cccc(-c3ccc(C#N)cc3)c2c(=O)n1-c1ccccc1 [Compound 43] | < 100 | –
6 | – | – | 1000 to 10000 | 1000 to 10000 | C[C@H](Nc1nc(N)ncc1C#N)c1cc2cccc(-c3ccc(N(C)C)cc3)c2c(=O)n1-c1ccccc1 [Compound 42] | < 100 | –
7 | – | – | 1000 to 10000 | 1000 to 10000 | C[C@H](Nc1nc(N)ncc1C#N)c1cc2cccc(-c3cncc(O)c3)c2c(=O)n1-c1ccccc1 [Compound 13, 2-amino-4-((S)-1-(8-(5-hydroxypyridin-3-yl)-1-oxo-2-phenyl-1,2-dihydroisoquinolin-3-yl)ethylamino)pyrimidine-5-carbonitrile] | < 100 | –
8 | – | – | 1000 to 10000 | 1000 to 10000 | Cc1cc(-c2cccc3nc([C@H](C)Nc4nc(N)ncc4C#N)n(-c4ccccc4)c(=O)c23)ccn1 [Compound 62] | < 100 | –
9 | – | – | 1000 to 10000 | 1000 to 10000 | C[C@H](Nc1nc(N)ncc1C#N)c1cc2cccc(-c3cccc(C#N)c3)c2c(=O)n1-c1ccccc1 [Compound 44] | < 100 | –
10 | – | – | 1000 to 10000 | 1000 to 10000 | C[C@H](Nc1nc(N)ncc1C#N)c1cc2cccc(-c3ccc(=O)n(CC4CC4)c3)c2c(=O)n1-c1ccccc1 [Compound 232] | < 100 | –

The remaining lines, values behind:

Row | SMILES | IC50 [1] [nM] | IC50 [2] [nM] | IC50 [3] [nM] | IC50 [4] [nM] | EC50 [5, 6] [nM] | EC50 [5] [nM]
11 | COc1cc(-c2cccc3cc(CNc4nc(N)ncc4C#N)n(-c4ccccc4)c(=O)c23)ccn1 [Compound 242] | < 100 | 100 to 1000 | – | – | – | –
12 | C[C@H](Nc1nc(N)ncc1C#N)c1nc2cccc(-c3ccnnc3)c2c(=O)n1-c1ccccc1 [Compound 66, (S)-2-amino-4-((1-(4-oxo-3-phenyl-5-(pyridazin-4-yl)-3,4-dihydroquinazolin-2-yl)ethyl)amino)pyrimidine-5-carbonitrile] | – | – | 1000 to 10000 | 1000 to 10000 | < 100 | –
13 | CCn1cc(-c2cccc3cc([C@H](C)Nc4nc(N)ncc4C#N)n(-c4ccccc4)c(=O)c23)ccc1=O [Compound 230] | – | – | 1000 to 10000 | 1000 to 10000 | < 100 | –
14 | C[C@H](Nc1nc(N)ncc1C#N)c1cc2cccc(-c3ccc(=O)n(C)c3)c2c(=O)n1-c1ccccc1 [Compound 183] | – | – | 1000 to 10000 | 1000 to 10000 | < 100 | –
15 | CC(C)n1cc(-c2cccc3cc([C@H](C)Nc4nc(N)ncc4C#N)n(-c4ccccc4)c(=O)c23)ccc1=O [Compound 234] | – | – | 1000 to 10000 | 1000 to 10000 | < 100 | –
16 | C=CS(=O)(=O)Nc1cccc(-c2cnc(N)nc2N[C@@H](C)c2cc3cccc(Cl)c3c(=O)n2-c2ccccc2)c1 [Compound 415] | < 100 | < 100 | – | – | – | –
17 | C[C@H](Nc1nc(N)ncc1C#N)c1cc2cccc(-c3cncc(S(C)(=O)=O)c3)c2c(=O)n1-c1ccccc1 [Compound 189] | – | – | 1000 to 10000 | 1000 to 10000 | < 100 | –
18 | COc1cc(-c2cccc3nc([C@H](C)Nc4nc(N)ncc4C#N)n(-c4ccccc4)c(=O)c23)ccn1 [Compound 116] | – | – | 1000 to 10000 | 1000 to 10000 | – | < 100
19 | C[C@H](Nc1ncnc(N)c1C#N)c1cc2cccc(Cl)c2c(=O)n1-c1ccon1 [Compound 335] | < 100 | 100 to 1000 | – | – | – | –
20 | C[C@H](Nc1nc(N)ncc1C#N)c1cc2ccccc2c(=O)n1-c1ccccc1 [Compound 125] | – | – | 1000 to 10000 | 1000 to 10000 | < 100 | –
21 | C[C@H](Nc1nc(N)ncc1-c1cn[nH]c1)c1cc2cccc(Cl)c2c(=O)n1-c1ccccc1 [Compound 378] | < 100 | 100 to 1000 | – | – | – | –
22 | C[C@H](Nc1nc(N)ncc1C#N)c1cc2cccc(-c3cncc(C(F)(F)F)c3)c2c(=O)n1-c1ccccc1 [Compound 52] | – | – | 1000 to 10000 | 1000 to 10000 | < 100 | –
23 | C[C@H](Nc1nc(N)ncc1C#N)c1cc2cccc(-c3cccc(NS(=O)(=O)N(C)C)c3)c2c(=O)n1-c1ccccc1 [Compound 127] | – | < 100 | 1000 to 10000 | – | – | –
24 | C[C@H](Nc1nc(N)ncc1C#N)c1cc2cccc(-c3ccc4c(c3)OCO4)c2c(=O)n1-c1ccccc1 [Compound 94] | – | – | 1000 to 10000 | 1000 to 10000 | < 100 | –
25 | C[C@H](Nc1nc(N)ncc1C#N)c1cc2cccc(-c3c[nH]nn3)c2c(=O)n1-c1ccccc1 [Compound 196] | – | – | 1000 to 10000 | 1000 to 10000 | < 100 | –
26 | C[C@H](Nc1nc(N)ncc1C#N)c1cc2cccc(-c3cccc(NS(C)(=O)=O)c3)c2c(=O)n1-c1ccccc1 [Compound 126] | – | – | 1000 to 10000 | 1000 to 10000 | < 100 | –
27 | C[C@H](Nc1nc(N)ncc1C#N)c1cc2cccc(-c3ccnc(NS(C)(=O)=O)c3)c2c(=O)n1-c1ccccc1 [Compound 443] | – | – | 1000 to 10000 | 1000 to 10000 | < 100 | –
28 | C[C@H](Nc1nc(N)ncc1C#N)c1cc2cccc(Cl)c2c(=O)n1C1CCCCC1 [Compound 300] | – | – | 1000 to 10000 | 1000 to 10000 | < 100 | –
29 | C[C@H](Nc1nc(N)ncc1C#N)c1cc2cccc(-c3cncc(F)c3)c2c(=O)n1-c1ccccc1 [Compound 98] | – | – | 1000 to 10000 | 1000 to 10000 | < 100 | –
30 | C[C@H](Nc1nc(N)ncc1C#N)c1nc2cccc(-c3cnn(C)c3)c2c(=O)n1-c1ccccc1 [Compound 61] | – | – | 1000 to 10000 | 1000 to 10000 | < 100 | –
31 | C[C@H](Nc1nc(N)ncc1C#N)c1cc2cccc(Cl)c2c(=O)n1C [Compound 276] | – | < 100 | – | – | – | –
32 | C[C@H](Nc1nc(N)ncc1C#N)c1cc2cccc(C#CCCC(=O)N3CCCC3)c2c(=O)n1-c1ccccc1 [Compound 207] | – | – | 1000 to 10000 | 1000 to 10000 | < 100 | –
